From US20120053165A1, “Novel Phenyl Imidazoles and Phenyl Triazoles As Gamma-Secretase Modulators” (Pfizer Inc., priority 2009, published 2012)
Counter-ions that a name gives are not always drawn. Like-named read-outs stand apart in the source and are kept apart here.

System: production of amyloid beta protein Aβ(1-42) in human WT-APP overexpressing CHO cells
[1] = Homo sapiens, CHO, read-out: Aβ 42 IC50, Geometric mean of 2-8 determinations, human WT-APP overexpressing CHO cells
[2] = Homo sapiens, CHO, read-out: GM Aβ 42B IC50, Geometric Mean of 2-8 Determinations, human WT-APP overexpressing CHO cells
[3] = read-out: Aβ 42 IC50, Geometric mean of 2-8 determinations, human WT-APP overexpressing CHO cells
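Further: Aβ(1-42) released into conditioned medium captured by ELISA after roughly 24 h compound exposure, vehicle and inhibitor controls defining maximal and minimal inhibition.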

1-[4-({3-[(chloro- 5-methylphenoxy) methyl]azetidin- 1-yl}carbonyl)-2- methoxyphenyl]- 4-methyl-1H- imidazole trifluoroacetate salt [Example 139]
IC50 (read-out: Aβ 42 IC50, Geometric mean of at least 2 determinations, human WT-APP overexpressing CHO cells): 557 nM

COc1cc(C(=O)NC2COc3c(F)cc(Cl)cc32)ccc1-n1cnc(C)c1 (single isomer, unassigned) [Example 127, N-(5-chloro-7-fluoro-2,3-dihydro-1-benzofuran-3-yl)-3-methoxy-4-(4-methyl-1H-imidazol-1-yl)benzamide trifluoroacetate salt]
IC50 [1]: 521 nM

COc1cc(C(=O)NC2COc3ccc(Cl)cc32)ccc1-n1cnc(C)c1 (single isomer, unassigned) [Example 128, N-(5-chloro-2,3-dihydro-1-benzofuran-3-yl)-3-methoxy-4-(4-methyl-1H-imidazol-1-yl)benzamide]
IC50 (Homo sapiens, CHO, read-out: Aβ 42 IC50): 521 nM

COc1cc(C(=O)NCCc2cccc(C#N)c2)ccc1-n1cnc(C)c1 [Example 1, N-[2-(3-cyanophenyl)ethyl]-3-methoxy-4-(4-methyl-1H-imidazol-1-yl)benzamide]
IC50 [2]: 2920 nM

COc1cc(C(=O)NCC(C)(O)c2ccc(Cl)cc2)ccc1-n1cnc(C)c1 (stereo not drawn) [Example 2, N-[2-(4-chlorophenyl)-2-hydroxypropyl]-3-methoxy-4-(4-methyl-1H-imidazol-1-yl)benzamide]
IC50 [2]: 942 nM

C#CCOc1cc(C(=O)NCCc2cccc(Cl)c2)ccc1-n1cnc(C)c1 [Example 3, N-[2-(3-chlorophenyl)ethyl]-4-(4-methyl-1H-imidazol-1-yl)-3-(prop-2-yn-1-yloxy)benzamide]
IC50 [2]: 341 nM

COc1cc(C(=O)NCc2cc(-c3cccc(Cl)c3)no2)ccc1-n1cnc(C)c1 [Example 4, N-{[3-(3-chlorophenyl)isoxazol-5-yl]methyl}-3-methoxy-4-(4-methyl-1H-imidazol-1-yl)benzamide]
IC50 [2]: 330 nM

COc1cc(C(=O)NCc2nnc(-c3cccc(Cl)c3)o2)ccc1-n1cnc(C)c1 [Example 5, N-{[5-(3-chlorophenyl)-1,3,4-oxadiazol-2-yl]methyl}-3-methoxy-4-(4-methyl-1H-imidazol-1-yl)benzamide]
IC50 [2]: 1460 nM

COc1cc(C(=O)NCCc2cccc(Cl)c2)ccc1-n1cnc(C)n1 [Example 6, N-[2-(3-chlorophenyl)ethyl]-3-methoxy-4-(3-methyl-[1,2,4]triazol-1-yl)benzamide]
IC50 [2]: 4210 nM

Cc1cn(-c2ccc(C(=O)NCC3(c4cccc(C(F)(F)F)c4)CCOCC3)cc2F)cn1 [Example 7, 3-fluoro-4-(4-methyl-1H-imidazol-1-yl)-N-({4-[3-(trifluoromethyl)phenyl]tetrahydro-2H-pyran-4-yl}methyl)benzamide, formic acid salt]
IC50 [2]: 2190 nM

Cc1cn(-c2ccc(C(=O)NCCc3cccc(Cl)c3)cc2F)cn1 [Example 8, N-[2-(3-chlorophenyl)ethyl]-3-fluoro-4-(4-methyl-1H-imidazol-1-yl)benzamide]
IC50 [2]: 960 nM

COc1cc(C(=O)NCc2csc3ccc(Cl)cc23)ccc1-n1cnc(C)c1 [Example 9, N-[(5-chloro-1-benzothien-3-yl)methyl]-3-methoxy-4-(4-methyl-1H-imidazol-1-yl)benzamide]
IC50 [1]: 158 nM

COc1cc(C(=O)Nc2[nH]nc(C)c2-c2cccc(C(F)(F)F)c2)ccc1-n1cnc(C)c1 [Example 10, 3-methoxy-4-(4-methyl-1H-imidazol-1-yl)-N-{3-methyl-4-[3-(trifluoro-methyl)phenyl]-1H-pyrazol-5-yl}benzamide]
IC50 [1]: 245 nM

COc1cc(C(=O)N2CC[C@@H](Oc3ccccc3C(F)(F)F)C2)ccc1-n1cnc(C)c1 [Example 11, 1-[2-methoxy-4-({(3R)-3-[2-(trifluoromethyl)phenoxy]pyrrolidin-1-yl}carbonyl)phenyl]-4-methyl-1H-imidazole]
IC50 [1]: 96 nM

COc1cc(C(=O)NCC2(c3ccc(F)cc3)CCC2)ccc1-n1cnc(C)c1 [Example 13, N-{[1-(4-fluorophenyl)cyclobutyl]methyl}-3-methoxy-4-(4-methyl-1H-imidazol-1-yl) benzamide]
IC50 (read-out: Aβ 42 IC50, Geometric mean of 26 determinations, human WT-APP overexpressing CHO cells): 261 nM

COc1cc(C(=O)NCc2cccc(C(F)(F)F)c2)ccc1-n1cnc(C)c1 [Example 14, 3-methoxy-4-(4-methyl-1H-imidazol-1-yl)-N-[3-(trifluoro-methyl)benzyl] benzamide]
IC50 [3]: 447 nM

COc1cc(C(=O)NCc2cc3cc(Cl)ccc3[nH]2)ccc1-n1cnc(C)c1 [Example 15, N-[(5-chloro-1H-indol-2-yl)methyl]-3-methoxy-4-(4-methyl-1H-imidazol-1-yl)benzamide]
IC50 [1]: 547 nM

COc1cc(C(=O)NCc2cnc(-c3ccccc3)s2)ccc1-n1cnc(C)c1 [Example 16, 3-methoxy-4-(4-methyl-1H-imidazol-1-yl)-N-[(2-phenyl-1,3-thiazol-5-yl)methyl] benzamide]
IC50 [3]: 283 nM

COc1cc(C(=O)NCc2noc3ccc(Cl)cc23)ccc1-n1cnc(C)c1 [Example 17, N-[(5-chloro-1,2-benz-isoxazol-3-yl)methyl]-3-methoxy-4-(4-methyl-1H-imidazol-1-yl) benzamide]
IC50 [3]: 371 nM

COc1cc(C(=O)N2CC(c3cccc(Cl)c3)C2)ccc1-n1cnc(C)c1 [Example 18, 1-(4-{[3-(3-chlorophenyl)azetidin-1-yl]carbonyl}-2-methoxy-phenyl)-4-methyl-1H-imidazole]
IC50 [1]: 660 nM

COc1cc(C(=O)NCC2(c3cccc(C(F)(F)F)c3)CCOCC2)ccc1-n1cnc(C)c1 [Example 19, 3-methoxy-4-(4-methyl-1H-imidazol-1-yl)-N-({4-[3-(tri-fluoromethyl)phenyl]tetrahydro-2H-pyran-4-yl}methyl) benzamide]
IC50 [3]: 757 nM

COc1cc(C(=O)N(C)Cc2cccc(C(F)(F)F)c2)ccc1-n1cnc(C)c1 [Example 20, 3-methoxy-N-methyl-4-(4-methyl-1H-imidazol-1-yl)-N-[3-(trifluoro-methyl)benzyl] benzamide]
IC50 [3]: 997 nM

COc1cc(C(=O)NCCc2cccc(Cl)c2)ccc1-n1cnc(C)c1 [Example 21, N-[2-(3-chloro-phenyl)ethyl]-3-methoxy-4-(4-methyl-1H-imidazol-1-yl) benzamide]
IC50 [3]: 629 nM

COc1cc(C(=O)N(C)Cc2ccc3ccccc3c2)ccc1-n1cnc(C)c1 [Example 22, 3-methoxy-N-methyl-4-(4-methyl-1H-imidazol-1-yl)-N-(2-naphthyl-methyl) benzamide]
IC50 [3]: 977 nM

COc1cc(C(=O)N2CCCC[C@H]2c2ccc(C(F)(F)F)cc2)ccc1-n1cnc(C)c1 [Example 23, (2S)-1-[3-methoxy-4-(4-methyl-1H-imidazol-1-yl)benzoyl]-2-[4-(trifluoro-methyl)phenyl] piperidine]
IC50 [1]: 838 nM

COc1cc(C(=O)NCCc2cccc(C(F)(F)F)c2)ccc1-n1cnc(C)c1 [Example 24, 3-methoxy-4-(4-methyl-1H-imidazol-1-yl)-N-{2-[3-(tri-fluoromethyl)phenyl]ethyl} benzamide]
IC50 [3]: 438 nM

COc1cc(C(=O)NCCc2c[nH]c3ccc(Cl)cc23)ccc1-n1cnc(C)c1 [Example 25, N-[2-(5-chloro-1H-indol-3-yl)ethyl]-3-methoxy-4-(4-methyl-1H-imidazol-1-yl) benzamide]
IC50 [3]: 195 nM

COc1cc(C(=O)NC(C)(C)c2ccc(F)c(F)c2)ccc1-n1cnc(C)c1 [Example 26, N-[1-(3,4-difluoro-phenyl)-1-methylethyl]-3-methoxy-4-(4-methyl-1H-imidazol-1-yl) benzamide]
IC50 [3]: 787 nM

COc1cc(C(=O)NCC2(c3ccccc3)CCCC2)ccc1-n1cnc(C)c1 [Example 27, 3-methoxy-4-(4-methyl-1H-imidazol-1-yl)-N-[(1-phenyl-cyclopentyl)methyl] benzamide]
IC50 [3]: 175 nM

COc1cc(C(=O)NCC2(c3ccc(C(F)(F)F)cc3)CCOCC2)ccc1-n1cnc(C)c1 [Example 28, 3-methoxy-4-(4-methyl-1H-imidazol-1-yl)-N-({4-[4-(tri-fluoromethyl)phenyl]tetrahydro-2H-pyran-4-yl}methyl) benzamide]
IC50 [3]: 188 nM

COc1cc(C(=O)NC(CCC(C)C)c2ccc(C(F)(F)F)cc2)ccc1-n1cnc(C)c1 (stereo not drawn) [Example 29, 3-methoxy-4-(4-methyl-1H-imidazol-1-yl)-N-{4-methyl-1-[4-(trifluoro-methyl)phenyl]pentyl} benzamide]
IC50 [3]: 861 nM

COc1cc(C(=O)NCC2(c3ccc(Cl)cc3)CC2)ccc1-n1cnc(C)c1 [Example 30, N-{[1-(4-chlorophenyl)cyclopropyl]methyl}-3-methoxy-4-(4-methyl-1H-imidazol-1-yl) benzamide]
IC50 [3]: 231 nM

COc1cc(C(=O)NCC2(c3cccc(C(F)(F)F)c3)CCC2)ccc1-n1cnc(C)c1 [Example 31, 3-methoxy-4-(4-methyl-1H-imidazol-1-yl)-N-({1-[3-(tri-fluoromethyl)phenyl]cyclobutyl}methyl) benzamide]
IC50 [3]: 298 nM

COc1cc(C(=O)NC(C)(C)c2cccc(C(F)(F)F)c2)ccc1-n1cnc(C)c1 [Example 32, 3-methoxy-4-(4-methyl-1H-imidazol-1-yl)-N-{1-methyl-1-[3-(trifluoro-methyl)phenyl]ethyl} benzamide]
IC50 [3]: 619 nM

COc1cc(C(=O)NCC2(c3ccc(C(F)(F)F)cc3)CCCC2)ccc1-n1cnc(C)c1 [Example 33, 3-methoxy-4-(4-methyl-1H-imidazol-1-yl)-N-({1-[4-(trifluoro-methyl)phenyl]cyclopentyl}methyl) benzamide, formic acid salt]
IC50 [3]: 139 nM

COc1cc(C(=O)N2CC[C@H](Oc3ccccc3C(F)(F)F)C2)ccc1-n1cnc(C)c1 [Example 34, 1-[2-methoxy-4-({(3S)-3-[2-(trifluoro-methyl)phenoxy]pyrrolidin-1-yl}carbonyl)phenyl]-4-methyl-1H-imidazole, formic acid salt]
IC50 [1]: 297 nM
